Entries after “also recorded” stand apart in the source; their conditions may differ.
Assays:
[1] = test system: primary cortical neuron cultures; test: HCA oxidative stress neuroprotection assay
α-tubulin acetylation = details: at 5 µM; ref 29 (Parmigiani et al.); cited from earlier work
[2] = test system: α-tubulin hyperacetylation, corresponding to HDAC6 inhibition; test: α-tubulin hyperacetylation in cells; details: for α-tubulin hyperacetylation versus histone hyperacetylation: at 2.5 µM
[3] = test system: primary cortical neuron cultures; test: Neuronal toxicity of compound alone; format: cell-based, Sprague-Dawley rats; details: all concentrations tested, without HCA, 24 h, MTT
[4] = test system: histone hyperacetylation, corresponds to class I HDAC inhibition; test: histone hyperacetylation in cells; details: at 10 µM

| Structure (SMILES) | neuroprotection in HCA-induced neurodegeneration assay ([1]; at 0.5 µM, HCA 5 mM, 24 h, MTT) | neurotoxicity in HCA-induced neurodegeneration assay ([1]; at concentrations higher than 0.5 µM, protection declined) | α-tubulin acetylation (α-tubulin acetylation) | α-tubulin hyperacetylation versus histone hyperacetylation [2] | neuronal toxicity when tested alone [3] | in vitro ADME properties (in vitro ADME properties) | histone hyperacetylation [4] | concentration at which protection against HCA-induced neuronal cell death starts ([1]; HCA 5 mM, 24 h, MTT) [µM] | protection against HCA-induced neuronal cell death (glutathione depletion-induced oxidative stress) ([1]; HCA 5 mM, 24 h, MTT, concentration series) | protection against HCA-induced neuronal cell death ([1]; at 10 µM, HCA 5 mM, 24 h, MTT) | levels of acetylated α-tubulin ([2]; primary cortical neuron cultures) |
| --- | --- | --- | --- | --- | --- | --- | --- | --- | --- | --- | --- |
| CC(/C=C/C(=O)NO)=C\[C@@H](C)C(=O)c1ccc(N(C)C)cc1 [TSA, trichostatin A, reference compound] | moderately neuroprotective | dose-dependant neurotoxicity | – | – | – | – | – | – | – | – | – |
| O=C(CCCCCCC(=O)Nc1ccc([C@H]2O[C@@H](CSc3nc(-c4ccccc4)c(-c4ccccc4)o3)C[C@@H](c3ccc(CO)cc3)O2)cc1)NO [Tubacin, reference compound] | – | – | induces α-tubulin acetylation | preferentially induced α-tubulin hyperacetylation | – | – | – | – | – | – | – |
| CN1CCc2c(c3ccccc3n2Cc2ccc(C(=O)NO)cc2)C1.O=C(O)C(F)(F)F [compound 6, Tubastatin A] | – | – | – | preferentially induced α-tubulin hyperacetylation | exhibited no toxicity; also recorded: no neuronal toxicity | favorable in vitro ADME properties | Slight induction of histone hyperacetylation | 5 | dose-dependent protection | near complete protection | induce elevated levels of acetylated α-tubulin |

From article PMC2916045 (Journal of the American Chemical Society, 2010)
